From the supplement of paper PMC10307832

Key:
Assay in all cases: relative viability (nuclei count vs DMSO), 5 days (fraction); higher = more cells survive
Dasatinib + Trametinib = compound: Cc1nc(Nc2ncc(C(=O)Nc3c(C)cccc3Cl)s2)cc(N2CCN(CCO)CC2)n1 [Dasatinib] + CC(=O)Nc1cccc(-n2c(=O)n(C3CC3)c(=O)c3c(Nc4ccc(I)cc4F)n(C)c(=O)c(C)c32)c1 [Trametinib] (partner 0.02 µM)
Method in brief: (§1)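 One day after seeding in 1536-well plates, lung cancer cell lines were dosed by pin tool. Dosing was either single-drug or a fixed anchor-drug dose plus five library-drug doses (not always all listed) in √10 steps. After 5 days, nuclei were stained in one fix-and-stain step and counted on 4× images, and relative viability is the nuclei count of treated wells over that of vehicle wells, given as the median of duplicate plates.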

XMD13-2 + Vorinostat = compound: C1CC1C(=O)NC2=NNC3=C2C=CC(=C3)C4=CC(=CC=C4)C(=O)NC5CC5 [XMD13-2] + O=C(CCCCCCC(=O)Nc1ccccc1)NO [Vorinostat] (partner 1 µM)
Method in brief: as §1

Dasatinib + Tozasertib = compound: Cc1nc(Nc2ncc(C(=O)Nc3c(C)cccc3Cl)s2)cc(N2CCN(CCO)CC2)n1 [Dasatinib] + Cc1cc(Nc2cc(N3CCN(C)CC3)nc(Sc3ccc(NC(=O)C4CC4)cc3)n2)n[nH]1 [Tozasertib] (partner 0.1 µM)
Method in brief: as §1

Dasatinib + Linsitinib = compound: Cc1nc(Nc2ncc(C(=O)Nc3c(C)cccc3Cl)s2)cc(N2CCN(CCO)CC2)n1 [Dasatinib] + C[C@]1(O)C[C@@H](c2nc(-c3ccc4ccc(-c5ccccc5)nc4c3)c3c(N)nccn32)C1 [Linsitinib] (partner 1 µM)
Method in brief: as §1

| Cell Line | relative viability (Dasatinib + Trametinib; first compound 0.005 µM) | relative viability (Dasatinib + Trametinib; first compound 0.01581 µM) | relative viability (Dasatinib + Trametinib; first compound 0.05 µM) | relative viability (Dasatinib + Trametinib; first compound 0.1581 µM) | relative viability (Dasatinib + Trametinib; first compound 0.5 µM) | relative viability (XMD13-2 + Vorinostat; first compound 0.05 µM) | relative viability (XMD13-2 + Vorinostat; first compound 0.1581 µM) | relative viability (XMD13-2 + Vorinostat; first compound 0.5 µM) | relative viability (XMD13-2 + Vorinostat; first compound 1.581 µM) | relative viability (XMD13-2 + Vorinostat; first compound 5 µM) | relative viability (Dasatinib + Tozasertib; first compound 0.005 µM) | relative viability (Dasatinib + Tozasertib; first compound 0.01581 µM) | relative viability (Dasatinib + Tozasertib; first compound 0.05 µM) | relative viability (Dasatinib + Tozasertib; first compound 0.1581 µM) | relative viability (Dasatinib + Tozasertib; first compound 0.5 µM) | relative viability (Dasatinib + Linsitinib; first compound 0.005 µM) | relative viability (Dasatinib + Linsitinib; first compound 0.01581 µM) | relative viability (Dasatinib + Linsitinib; first compound 0.05 µM) | relative viability (Dasatinib + Linsitinib; first compound 0.1581 µM) | relative viability (Dasatinib + Linsitinib; first compound 0.5 µM) |
| --- | --- | --- | --- | --- | --- | --- | --- | --- | --- | --- | --- | --- | --- | --- | --- | --- | --- | --- | --- | --- |
| NCI-H2023 | 0.487 | 0.49 | 0.432 | 0.364 | 0.326 | 0.837 | 0.668 | 0.696 | 0.731 | 0.94 | 0.304 | 0.316 | 0.293 | 0.245 | 0.219 | 0.439 | 0.384 | 0.426 | 0.329 | 0.188 |
| NCI-H2085 | 0.485 | 0.297 | 0.195 | 0.214 | 0.159 | 0.897 | 0.745 | 0.842 | 0.711 | 0.81 | 0.737 | 0.641 | 0.564 | 0.229 | 0.214 | 0.773 | 0.789 | 0.644 | 0.232 | 0.172 |
| NCI-H2087 | 0.291 | 0.2 | 0.178 | 0.124 | 0.101 | 0.686 | 0.902 | 0.729 | 0.898 | 0.853 | 0.289 | 0.21 | 0.246 | 0.185 | 0.113 | 0.929 | 0.772 | 1.04 | 0.862 | 0.469 |
| NCI-H2126 | 0.641 | 0.425 | 0.551 | 0.424 | 0.309 | 0.849 | 0.731 | 0.745 | 0.749 | 0.735 | 0.832 | 0.732 | 0.773 | 0.654 | 0.348 | 0.636 | 0.582 | 0.589 | 0.422 | 0.264 |
| NCI-H2228 | 0.463 | 0.776 | 0.556 | 0.39 | 0.249 | 0.642 | 0.573 | 0.507 | 0.76 | 0.752 | 0.231 | 0.232 | 0.216 | 0.185 | 0.184 | 0.629 | 0.593 | 0.649 | 0.326 | 0.215 |
| NCI-H2347 | 0.25 | 0.277 | 0.221 | 0.157 | 0.164 | 0.565 | 0.619 | 0.765 | 0.562 | 0.661 | 0.56 | 0.454 | 0.363 | 0.238 | 0.263 | 1.01 | 0.935 | 0.943 | 0.402 | 0.159 |
| NCI-H2405 | 0.431 | 0.365 | 0.351 | 0.272 | 0.233 | 1.08 | 0.934 | 1.04 |  | 0.965 | 0.639 | 0.468 | 0.448 | 0.222 | 0.161 | 0.699 | 0.392 | 0.336 | 0.253 | 0.167 |
| NCI-H3122 | 0.234 | 0.249 | 0.248 | 0.222 | 0.192 | 1.04 | 0.987 | 1.1 | 0.995 | 0.941 | 0.38 | 0.388 | 0.414 | 0.373 | 0.292 | 1.03 | 1.05 | 1.03 | 0.762 | 0.815 |
| PC-3 [JPC-3] | 0.771 | 0.736 | 0.79 | 0.704 | 0.528 | 0.804 | 0.857 | 0.916 |  | 0.734 | 0.895 | 0.859 | 0.976 | 0.799 | 0.579 | 0.976 | 0.97 | 1.07 | 1.06 | 0.633 |
| PC-14 | 0.882 | 0.642 | 0.743 | 0.418 | 0.0498 | 0.951 | 0.934 | 0.749 | 0.825 | 0.975 | 0.54 | 0.583 | 0.514 | 0.667 | 0.227 | 1 | 0.968 | 0.93 | 0.546 | 0.281 |
| RERF-LC-KJ | 0.855 | 0.784 | 0.765 | 0.668 | 0.658 | 0.783 | 0.653 | 0.686 | 0.616 | 0.806 | 0.52 | 0.511 | 0.44 | 0.487 | 0.406 | 0.896 | 0.845 | 0.862 | 0.67 | 0.634 |
| SK-LU-1 | 0.349 | 0.306 | 0.291 | 0.247 | 0.252 | 0.874 | 0.831 | 0.959 | 0.719 | 0.74 | 0.272 | 0.194 | 0.156 | 0.101 | 0.0919 | 0.636 | 0.445 | 0.435 | 0.261 | 0.242 |
| SK-MES-1 | 0.566 | 0.475 | 0.361 | 0.217 | 0.157 | 1.16 | 1.09 | 1.07 | 1.03 | 1.31 | 0.972 | 1.02 | 0.938 | 0.556 | 0.22 | 1.11 | 1.08 | 0.937 | 0.412 | 0.219 |
| SW 1573 | 0.531 |  | 0.475 | 0.33 | 0.433 | 0.786 | 0.625 | 0.853 | 0.844 | 0.385 | 0.174 | 0.189 | 0.193 | 0.128 | 0.131 | 0.747 | 0.648 | 0.6 | 0.425 | 0.435 |
